How the values were obtained:
in vivo = details: rhesus monkey, inhaled or intranasal
Procedure: Blood was obtained at 10, 20, 30, 60, 120, 240, and 480 minutes post-administration from the monkeys administered the solid dosage form. For the monkeys treated with the nasal spray, blood was obtained 5, 10, 20, 30, 60, 120, 240, and 480 minutes post-treatment.
Blood was obtained at 5, 10, 20, 30, 60, 120, and 240 minutes post-administration.
Administered dose was 6 mg/animal. […] Blood was obtained at 5, 10, 20, 30, 60, 120, and 240 minutes post-administration.
(§1) Administered dose was 6 mg/animal. […] Administered dose was 6 mg/animal. Blood was obtained at 5, 10, 20, 30, 60, 120, and 240 minutes post-administration.
Total dose was 6 mg/animal. Blood was obtained at 5, 10, 20, 30, 60, 120, and 240 minutes post-administration.
as §1, §1
(§2) Administered dose was 6 mg/animal. […] Administered dose was 6 mg/animal. […] Blood was obtained at 5, 10, 20, 30, 60, 120, and 240 minutes post-administration.
as §2

[1] = Zolmitriptan pharmacokinetics (plasma concentration versus time) in rhesus monkeys; type: in vivo; details: 5 mg/animal; for Tmax: intranasal dry powder, n=2
Procedure: The pharmacokinetics of a zolmitriptan liquid nasal spray and a dry powder formulation were studied in two groups of rhesus monkeys. One group, n=2, was administered a nasal spray of zolmitriptan (Zomig®, 5 mg/100 μl in an aqueous buffered solution). A second, n=2, was administered intranasal zolmitriptan freebase with a particle size of <15 μm. The administered dose was 5 mg/animal.
One group, n=2, was administered intranasal zolmitriptan freebase with a particle size of <15 μm. Administered dose was 5 mg/animal. […] Administered dose was 5 mg/animal.

[2] = intranasal dry powder <15 μm, versus Zomig nasal spray

Structure (SMILES): CNS(=O)(=O)Cc1ccc2[nH]cc(CCN(C)C)c2c1 [sumatriptan freebase]
- Cmax among the formulations tested that contained freebase (in vivo): highest

Structure (SMILES): CNS(=O)(=O)Cc1ccc2[nH]cc(CCN(C)C)c2c1 [sumatriptan succinate]
- Cmax (in vivo; 6 mg, Cmax): 696 ng/mL
- Tmax (in vivo; 6 mg, Tmax): 7.5 min

Structure (SMILES): CN(C)CCc1c[nH]c2ccc(C[C@H]3COC(=O)N3)cc12 [zolmitriptan freebase]
- BA compared with the liquid spray [1, 2]: significantly increased
- Cmax compared with the liquid spray [1, 2]: significantly increased
- Tmax ([1]; 50% of the particles <15 μm and 50% 38 μm-100 μm): 20 min
- Tmax ([1]; particle size <15 μm): 10 min
